Results taken from PMC6332449, “Pharmacological Validation of N-Myristoyltransferase as a Drug Target in Leishmania donovani” (ACS Infectious Diseases, 2018).
Where two headings read alike, the source gives them in different places.

Experiments:
[1] = system: L. donovani axenic amastigotes; test: L. donovani axenic amastigote compound sensitivity assay; format: cell-based, Leishmania donovani; settings: read-out: axenic amastigote EC50
Procedure: (§1) The clonal L. donovani cell line LdBOB (derived from MHOM/SD/62/1S-CL2D) was used in our in vitro compound screening and mechanism of action studies. Promastigotes were grown at 26 °C in modified M199 media with axenic amastigotes grown at 37 °C, as previously described.[35] All animal studies were carried using L. donovani (LV9; WHO designation: MHOM/ET/67/HU3).
(§2) These assays were carried out as previously described.[25],[36],[37]

[2] = system: THP-1; test: THP-1 host cell toxicity in the intramacrophage assay; format: cell-based
Procedure: as §2

[3] = system: L. donovani intracellular amastigotes; test: L. donovani intramacrophage (intracellular amastigote) assay; format: cell-based, Leishmania donovani; settings: read-out: intramacrophage EC50
Procedure: as §1, §2

[4] = system: L. donovani promastigotes; test: L. donovani promastigote compound sensitivity assay; format: cell-based, Leishmania donovani; settings: read-out: promastigote EC50
Procedure: as §1, §2

[5] = system: L. donovani amastigotes (LV9); test: mouse model of VL (BALB/c mice infected with L. donovani LV9)
[6] = biological target: T1, L. major NMT (LmNMT) (Leishmania major, UniProt Q4Q5S8); test: LmNMT enzymatic assay (scintillation proximity, [3H]myristoyl-CoA, CAP5.5 peptide); format: biochemical
T1 construct: Recombinant LmNMT was expressed and purified as previously described; made in house
T1 sequence (Q4Q5S8 entry or part of it): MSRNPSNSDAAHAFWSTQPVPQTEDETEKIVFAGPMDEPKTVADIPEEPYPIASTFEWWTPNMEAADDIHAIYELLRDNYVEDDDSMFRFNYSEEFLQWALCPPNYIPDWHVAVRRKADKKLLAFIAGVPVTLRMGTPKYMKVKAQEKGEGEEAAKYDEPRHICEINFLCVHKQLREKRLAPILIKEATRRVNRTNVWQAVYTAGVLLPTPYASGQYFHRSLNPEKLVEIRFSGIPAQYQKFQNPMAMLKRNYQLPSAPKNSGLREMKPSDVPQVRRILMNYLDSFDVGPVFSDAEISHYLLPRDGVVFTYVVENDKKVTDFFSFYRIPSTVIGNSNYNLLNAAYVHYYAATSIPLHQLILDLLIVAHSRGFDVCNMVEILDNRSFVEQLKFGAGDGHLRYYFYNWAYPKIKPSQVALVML

[7] = system: Trypanosoma brucei; parameters: method as in PMID 20360736; settings: cited from earlier work
[8] = system: Trypanosoma brucei; settings: cited from earlier work
[9] = system: Trypanosoma brucei N-myristoyltransferase (TbNMT); settings: cited from earlier work
[10] = system: Vero cells; test: host Vero cell toxicity; format: cell-based; settings: Chlorocebus sabaeus, read-out: EC50 against host Vero cells
[11] = system: intracellular amastigote form of T. cruzi; test: T. cruzi intracellular amastigote assay; format: cell-based; settings: Trypanosoma cruzi; read-out: EC50 against T. cruzi intracellular amastigotes
[12] = biological target: T2, human NMT (HsNMT) (Homo sapiens, UniProt P30419); test: counter-screen against human NMT; format: biochemical
T2 sequence (P30419 1-496): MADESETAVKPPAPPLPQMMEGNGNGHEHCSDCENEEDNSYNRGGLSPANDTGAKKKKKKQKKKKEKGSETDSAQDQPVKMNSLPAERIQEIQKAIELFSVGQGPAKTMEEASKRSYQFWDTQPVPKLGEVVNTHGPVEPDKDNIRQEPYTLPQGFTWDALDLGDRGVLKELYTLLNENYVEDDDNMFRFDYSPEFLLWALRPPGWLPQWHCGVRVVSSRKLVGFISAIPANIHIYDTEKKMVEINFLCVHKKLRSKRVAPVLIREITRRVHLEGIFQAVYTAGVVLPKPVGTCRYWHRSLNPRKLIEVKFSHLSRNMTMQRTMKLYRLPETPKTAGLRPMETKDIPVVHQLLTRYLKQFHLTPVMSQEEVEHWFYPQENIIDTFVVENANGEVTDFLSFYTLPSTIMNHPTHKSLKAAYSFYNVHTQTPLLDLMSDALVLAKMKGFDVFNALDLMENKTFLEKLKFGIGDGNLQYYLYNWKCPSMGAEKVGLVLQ

[13] = Homo sapiens, THP-1, read-out: THP-1 EC50
[14] = Leishmania donovani, L. donovani LdBOB
[15] = Homo sapiens, THP-1; read-out: THP-1 EC50
[16] = Leishmania donovani, L. donovani intracellular amastigotes

For `Cc1nn(C)c(C)c1N(C)S(=O)(=O)c1c(Cl)cc(CCCC2CCN(C)CC2)cc1Cl` [compound 3], the EC50 ([1]; Leishmania donovani) was 8.2 ± 0.6 µM, the EC50 [2, 13] was > 50 µM and the EC50 ([3]; Leishmania donovani) was 7.1 ± 1.1 µM. For the same compound, the EC50 ([4]; Leishmania donovani) was 0.07 ± 0.004 µM.

With `CCCCCCCCCCCCCCCCOP(=O)([O-])OCC[N+](C)(C)C` [miltefosine] the “reduction in liver parasite burden (LDU) versus vehicle” value (“reduction in liver parasite burden” below) ([5]; 30 mg kg^-1 orally q.d. for 5 days) was 88%.

For `Cc1nn(C)c(C)c1N[S+](=O)([O-])c1ccc(CCCC2CCNCC2)cc1` [compound 1], the EC50 ([1]; L. donovani LdBOB) was > 50 µM, the EC50 ([2]; read-out: THP-1 EC50) was > 50 µM and the EC50 ([3]; L. donovani intracellular amastigotes) was > 50 µM. The EC50 ([4]; L. donovani LdBOB) was > 50 µM and the IC50 ([6]; 5 nM LmNMT, 0.5 μM CAP5.5, 0.125 μM myristoyl-CoA, read-out: LmNMT IC50) was 0.4 µM.

For `Cc1nn(C)c(C)c1NS(=O)(=O)c1c(Cl)cc(-c2ccnc(N3CCNCC3)c2)cc1Cl` [DDD85646], the “efficacy in mouse models of stage 1 HAT (in words)” value [7] is listed as “curative”, the “activity in the stage 2 HAT mouse model (in words)” value [8] is listed as “not active” and the “inhibition of TbNMT (in words)” value [9] is listed as “low nM inhibitor”.

For `Cc1nn(C)c(C)c1N(C(F)F)S(=O)(=O)c1c(Cl)cc(CCCC2CCN(C)CC2)cc1Cl` [compound 2], the “reduction in liver parasite burden” value ([5]; 50 mg kg^-1 orally b.i.d. for 5 days) was 52%, the EC50 ([1]; Leishmania donovani) was 0.2 ± 0.006 µM and the EC50 [10] was 5.1 µM. The EC50 [11] was 0.47 µM, the EC50 [2, 13] was 15.8 µM and the “efficacy in the stage 2 mouse model (in words)” value [8] was “moderate efficacy”. It also gave an EC50 ([3]; Leishmania donovani) of 2.4 ± 0.8 µM and an EC50 ([4]; Leishmania donovani) of 0.04 ± 0.001 µM.

In the case of `Cc1nn(C)c(C)c1N(C)S(=O)(=O)c1c(Cl)cc(N2CCN(C(=O)c3ccn[nH]3)CC2)cc1Cl` [compound 4, 4-(4-(1H-Pyrazole-5-carbonyl)piperazin-1-yl)-2,6-dichloro-N-methyl-N-(1,3,5-trimethyl-1H-pyrazol-4-yl)benzenesulfonamide], the EC50 [1, 14] is reported as 2.7 ± 0.08 µM, the EC50 [2, 15] is reported as > 50 µM and the EC50 [3, 16] is reported as > 50 µM. For the same compound, the EC50 [4, 14] was 18.3 ± 0.1 µM, the IC50 [6] was 0.03 µM and the IC50 [12] was 0.02 µM.

With `Cc1nn(C)c(C)c1N(C)S(=O)(=O)c1c(Cl)cc(N2CCN(C(=O)c3cn[nH]c3)CC2)cc1Cl` [compound 6, 4-(4-(1H-Pyrazole-4-carbonyl)piperazin-1-yl)-2,6-dichloro-N-methyl-N-(1,3,5-trimethyl-1H-pyrazol-4-yl)benzenesulfonamide] the EC50 [1, 14] was > 50 µM, the EC50 [2, 15] was > 50 µM and the EC50 [3, 16] was > 50 µM. The EC50 [4, 14] was > 50 µM, the IC50 [6] was 0.06 µM and the IC50 [12] was 0.1 µM.

In the case of `O.O.O.O.O.O.O.O.O.O=C([O-])[C@@H]1[O][Sb](=[O])([O][Sb]2(=[O])[O][C@H]([C@H](O)CO)[C@H](O)[C@H](C(=O)[O-])[O]2)[O][C@H]([C@H](O)CO)[C@@H]1O.[Na+].[Na+].[Na+]` (some centres unmarked) [sodium stibogluconate], the “reduction in liver parasite burden” value ([5]; 15 mg kg^-1 subcutaneous q.d. for 5 days) is reported as 52%.

With `Cc1nn(C)c(C)c1N(C)S(=O)(=O)c1c(Cl)cc(N2CCN(C(=O)Cc3ccccc3)CC2)cc1Cl` [compound 9, 2,6-Dichloro-N-methyl-4-(4-(2-phenylacetyl)piperazin-1-yl)-N-(1,3,5-trimethyl-1H-pyrazol-4-yl)benzenesulfonamide] the EC50 [1, 14] was 2.2 ± 0.03 µM, the EC50 [2, 15] was > 50 µM and the EC50 [3, 16] was 40.5 ± 13.4 µM. For the same compound, the EC50 [4, 14] was 6.3 ± 0.3 µM, the IC50 [6] was 10 µM and the “potency against LmNMT (in words)” value [6] was “poor activity”. For the same compound, the IC50 [12] was 6.3 µM.

In the case of `Cc1nn(C)c(C)c1N(C)S(=O)(=O)c1c(Cl)cc(N2CCN(C(=O)c3ccc(N)cc3)CC2)cc1Cl` [compound 8, 4-(4-(4-Aminobenzoyl)piperazin-1-yl)-2,6-dichloro-N-methyl-N-(1,3,5-trimethyl-1H-pyrazol-4-yl)benzenesulfonamide], the EC50 [1, 14] is reported as 5.1 ± 0.2 µM, the EC50 [2, 15] is reported as > 50 µM and the EC50 [3, 16] is reported as > 50 µM. The EC50 [4, 14] was 8.2 ± 0.5 µM, the IC50 [6] was 0.03 µM and the IC50 [12] was 0.008 µM.

In the case of `Cc1nn(C)c(C)c1N(C)S(=O)(=O)c1c(Cl)cc(N2CCN(C(=O)c3cnn(C)c3)CC2)cc1Cl` [compound 5, 2,6-Dichloro-N-methyl-4-(4-(1-methyl-1H-pyrazole-4-carbonyl)piperazin-1-yl)-N-(1,3,5-trimethyl-1H-pyrazol-4-yl)benzenesulfonamide], the EC50 [1, 14] is reported as 9.2 ± 0.4 µM, the EC50 [2, 15] is reported as > 50 µM and the EC50 [3, 16] is reported as > 50 µM. The EC50 [4, 14] was 10 ± 0.4 µM, the IC50 [6] was 0.08 µM and the IC50 [12] was 0.08 µM.

In the case of `Cc1nn(C)c(C)c1N(C)S(=O)(=O)c1c(Cl)cc(N2CCN(C(=O)c3cccnc3)CC2)cc1Cl` [compound 7, 2,6-Dichloro-N-methyl-4-(4-nicotinoylpiperazin-1-yl)-N-(1,3,5-trimethyl-1H-pyrazol-4-yl)benzenesulfonamide], the EC50 [1, 14] is reported as 0.3 ± 0.01 µM, the EC50 [2, 15] is reported as > 50 µM and the EC50 [3, 16] is reported as > 50 µM. The EC50 [4, 14] was 5.8 ± 0.4 µM, the IC50 [6] was 0.1 µM and the IC50 [12] was 0.5 µM.
